Measurements reported in patent publication US20040039053A1, “Use of(-) (3-halomethylphenoxy) (4-halophenyl) acetic acid derivatives for treatment of insulin resistance, type 2 diabetes, hyperlipidemia and hyperuricemia” (priority 2000, published 2004).
Where two headings read alike, the source gives them in different places.

Experiments:
[1] = target: CYP2C19 (Homo sapiens, UniProt P33261); assay: Cytochrome P450 isoform inhibition in human hepatic microsomes, S-mephenytoin (Example 18); assay type: in vitro ADME
[2] = target: T1, CYP1A2 (Homo sapiens, UniProt P05177); conditions: both, 30 min
T1 sequence (P05177 1-516): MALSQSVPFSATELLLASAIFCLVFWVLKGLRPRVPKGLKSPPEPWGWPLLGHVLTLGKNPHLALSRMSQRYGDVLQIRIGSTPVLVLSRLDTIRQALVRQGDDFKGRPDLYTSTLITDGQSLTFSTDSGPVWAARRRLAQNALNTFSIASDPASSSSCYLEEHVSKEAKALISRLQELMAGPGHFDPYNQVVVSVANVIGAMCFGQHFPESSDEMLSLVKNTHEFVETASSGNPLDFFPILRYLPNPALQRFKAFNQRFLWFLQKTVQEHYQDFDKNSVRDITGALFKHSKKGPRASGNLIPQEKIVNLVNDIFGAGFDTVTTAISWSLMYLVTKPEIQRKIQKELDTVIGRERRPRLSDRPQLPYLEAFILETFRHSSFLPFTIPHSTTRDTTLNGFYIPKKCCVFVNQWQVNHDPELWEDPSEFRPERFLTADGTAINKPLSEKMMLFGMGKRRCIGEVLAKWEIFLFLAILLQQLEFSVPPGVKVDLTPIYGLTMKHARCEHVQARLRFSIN

[3] = target: T2, CYP2A6 (Homo sapiens, UniProt P11509); conditions: both, 20 min
T2 sequence (P11509 1-494): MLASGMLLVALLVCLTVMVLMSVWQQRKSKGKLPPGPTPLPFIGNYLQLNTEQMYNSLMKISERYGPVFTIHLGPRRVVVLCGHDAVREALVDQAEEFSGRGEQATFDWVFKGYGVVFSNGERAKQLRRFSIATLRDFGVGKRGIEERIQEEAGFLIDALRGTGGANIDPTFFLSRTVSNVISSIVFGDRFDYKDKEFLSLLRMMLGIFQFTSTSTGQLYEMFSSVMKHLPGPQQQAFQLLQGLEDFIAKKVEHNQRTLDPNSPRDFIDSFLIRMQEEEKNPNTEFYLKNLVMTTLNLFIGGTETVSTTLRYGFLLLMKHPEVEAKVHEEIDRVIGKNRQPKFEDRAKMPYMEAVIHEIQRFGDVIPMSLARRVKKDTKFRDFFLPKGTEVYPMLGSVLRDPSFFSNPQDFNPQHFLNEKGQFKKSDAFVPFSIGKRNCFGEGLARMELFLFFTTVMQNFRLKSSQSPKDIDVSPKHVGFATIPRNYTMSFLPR

[4] = target: T3, CYP2C9 (Homo sapiens, UniProt P11712); conditions: for Tolbutamide 4-OH TB Production: both, human, 40 min
[5] = target: T4, CYP2D6 (Homo sapiens, UniProt P10635); conditions: both, 15 min
[6] = target: T5, CYP2E1 (Homo sapiens, UniProt P05181); conditions: both, 20 min
[7] = target: T6, CYP3A4 (Homo sapiens, UniProt P08684); conditions: both, 10 min
[8] = target: T1, CYP1A2; assay: in vitro; conditions: both, microsomes
[9] = target: T2, CYP2A6; assay: in vitro; conditions: both, microsomes
[10] = target: T3, CYP2C9; assay: in vitro; conditions: both, microsomes
[11] = target: T4, CYP2D6; assay: in vitro; conditions: both, microsomes
[12] = target: T5, CYP2E1; assay: in vitro; conditions: both, microsomes
[13] = target: T6, CYP3A4; assay: in vitro; conditions: both, microsomes
[14] = target: T5, CYP2E1; assay: Cytochrome P450 isoform inhibition in human hepatic microsomes, chlorzoxazone (Example 18); conditions: 0.33 to 33.3 μM

Sequence of CYP2C19 (P33261 whole entry, canonical isoform): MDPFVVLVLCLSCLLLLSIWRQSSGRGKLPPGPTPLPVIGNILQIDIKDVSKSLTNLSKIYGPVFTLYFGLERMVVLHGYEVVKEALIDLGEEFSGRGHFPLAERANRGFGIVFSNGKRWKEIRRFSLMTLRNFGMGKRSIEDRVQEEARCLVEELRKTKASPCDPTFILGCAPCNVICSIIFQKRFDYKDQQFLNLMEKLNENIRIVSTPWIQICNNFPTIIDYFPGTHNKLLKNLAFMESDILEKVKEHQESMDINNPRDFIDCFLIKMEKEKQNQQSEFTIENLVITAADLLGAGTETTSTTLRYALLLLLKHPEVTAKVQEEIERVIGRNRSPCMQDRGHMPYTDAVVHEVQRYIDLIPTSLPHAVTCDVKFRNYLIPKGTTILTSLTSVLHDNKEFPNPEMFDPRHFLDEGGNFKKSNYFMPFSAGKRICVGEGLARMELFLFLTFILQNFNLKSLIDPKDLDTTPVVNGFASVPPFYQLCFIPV
T3 sequence (P11712 whole entry): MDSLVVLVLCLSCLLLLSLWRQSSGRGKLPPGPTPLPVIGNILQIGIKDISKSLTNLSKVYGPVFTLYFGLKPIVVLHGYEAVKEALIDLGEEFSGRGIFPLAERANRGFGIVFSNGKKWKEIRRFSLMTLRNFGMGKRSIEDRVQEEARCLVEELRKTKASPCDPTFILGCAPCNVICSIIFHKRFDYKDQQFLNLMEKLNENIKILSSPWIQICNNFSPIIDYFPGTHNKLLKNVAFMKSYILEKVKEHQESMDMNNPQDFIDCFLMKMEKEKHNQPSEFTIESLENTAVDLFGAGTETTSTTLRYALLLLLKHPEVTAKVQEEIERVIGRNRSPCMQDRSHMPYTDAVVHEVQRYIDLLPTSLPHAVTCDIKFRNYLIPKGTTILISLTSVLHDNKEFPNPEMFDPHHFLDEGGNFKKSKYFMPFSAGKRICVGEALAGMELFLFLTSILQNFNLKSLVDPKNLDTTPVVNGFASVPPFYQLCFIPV
T5 sequence (P05181 whole entry): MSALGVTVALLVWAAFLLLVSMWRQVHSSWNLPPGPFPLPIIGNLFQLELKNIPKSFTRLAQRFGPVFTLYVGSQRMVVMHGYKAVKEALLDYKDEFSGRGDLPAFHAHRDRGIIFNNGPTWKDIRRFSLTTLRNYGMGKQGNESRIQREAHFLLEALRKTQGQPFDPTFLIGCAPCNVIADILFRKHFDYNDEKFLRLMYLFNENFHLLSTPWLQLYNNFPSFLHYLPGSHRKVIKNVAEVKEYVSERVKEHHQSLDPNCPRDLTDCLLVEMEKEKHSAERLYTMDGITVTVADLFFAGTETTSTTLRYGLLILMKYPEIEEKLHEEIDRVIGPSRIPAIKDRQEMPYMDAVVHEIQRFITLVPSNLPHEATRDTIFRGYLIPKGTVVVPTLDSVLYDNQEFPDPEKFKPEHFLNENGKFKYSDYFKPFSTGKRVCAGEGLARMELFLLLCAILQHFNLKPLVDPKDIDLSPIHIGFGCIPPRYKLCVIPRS
T6 sequence (P08684 whole entry): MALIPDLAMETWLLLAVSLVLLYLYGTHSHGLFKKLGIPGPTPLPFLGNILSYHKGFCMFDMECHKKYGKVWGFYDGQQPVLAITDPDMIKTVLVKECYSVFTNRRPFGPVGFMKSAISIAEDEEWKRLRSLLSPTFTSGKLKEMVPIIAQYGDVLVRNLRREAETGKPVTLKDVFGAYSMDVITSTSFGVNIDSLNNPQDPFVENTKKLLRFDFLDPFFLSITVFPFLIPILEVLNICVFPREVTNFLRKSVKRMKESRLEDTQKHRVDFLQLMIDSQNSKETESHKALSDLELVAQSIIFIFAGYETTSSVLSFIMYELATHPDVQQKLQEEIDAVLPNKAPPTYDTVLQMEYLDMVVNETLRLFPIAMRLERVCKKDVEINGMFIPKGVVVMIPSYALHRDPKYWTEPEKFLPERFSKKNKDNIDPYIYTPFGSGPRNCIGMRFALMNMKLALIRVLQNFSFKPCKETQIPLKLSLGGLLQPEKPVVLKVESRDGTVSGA
T4 sequence (P10635 whole entry): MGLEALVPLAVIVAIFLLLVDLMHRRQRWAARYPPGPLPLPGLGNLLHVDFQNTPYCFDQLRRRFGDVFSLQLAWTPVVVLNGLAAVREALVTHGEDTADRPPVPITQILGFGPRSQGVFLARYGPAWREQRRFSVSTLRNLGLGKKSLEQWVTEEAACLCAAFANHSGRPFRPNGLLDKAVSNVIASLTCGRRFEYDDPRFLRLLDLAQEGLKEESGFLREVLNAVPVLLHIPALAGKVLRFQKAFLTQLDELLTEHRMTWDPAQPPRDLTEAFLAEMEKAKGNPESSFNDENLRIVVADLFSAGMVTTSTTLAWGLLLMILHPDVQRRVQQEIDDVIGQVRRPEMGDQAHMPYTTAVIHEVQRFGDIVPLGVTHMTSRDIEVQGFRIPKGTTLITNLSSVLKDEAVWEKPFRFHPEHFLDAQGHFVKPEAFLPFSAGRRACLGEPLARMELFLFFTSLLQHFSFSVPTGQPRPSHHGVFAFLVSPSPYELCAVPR

O=C(O)C(Oc1cccc(C(F)(F)F)c1)c1ccc(Cl)cc1 (single isomer, unassigned; (-)) [(−) halofenic acid, (−) 4-chlorophenyl-(3-trifluoromethylphenoxy)-acetic acid]
inhibition at 30 min, 0.33 μM ([1]; both sexes, human, pooled human hepatic microsomes, probe S-mephenytoin 50 μM, test article 0.33 μM): 4%
inhibition at 30 min, 1 μM ([1]; both sexes, human, pooled human hepatic microsomes, probe S-mephenytoin 50 μM, test article 1.0 μM): 5%
inhibition at 30 min, 3.3 μM ([1]; both sexes, human, pooled human hepatic microsomes, probe S-mephenytoin 50 μM, test article 3.3 μM): 15%
inhibition at 30 min, 10 μM ([1]; both sexes, human, pooled human hepatic microsomes, probe S-mephenytoin 50 μM, test article 10 μM): 23%
inhibition at 30 min, 33.3 μM ([1]; both sexes, human, pooled human hepatic microsomes, probe S-mephenytoin 50 μM, test article 33.3 μM): 43%
IC50 ([1]; human hepatic microsomes 1 mg/mL, 50 μM S-mephenytoin, 30 minutes, read-out: IC50, 4-hydroxymephenytoin production (CYP2C19)): > 33.3 µM
Phenacetin AC Production ([2]; 0.33 μM): 116 ± 2 pmol/mg protein/min
Phenacetin AC Production ([2]; 1 μM): 118 ± 2 pmol/mg protein/min
Phenacetin AC Production ([2]; 3.3 μM): 119 ± 2 pmol/mg protein/min
Phenacetin AC Production ([2]; 10 μM): 119 ± 2 pmol/mg protein/min
Phenacetin AC Production ([2]; 33.3 μM): 119 ± 2 pmol/mg protein/min
Coumarin 7-HC Production ([3]; 0.33 μM): 33.3 ± 0.7 pmol/mg protein/min
Coumarin 7-HC Production ([3]; 1 μM): 32.6 ± 0.7 pmol/mg protein/min
Coumarin 7-HC Production ([3]; 3.3 μM): 32.1 ± 0.7 pmol/mg protein/min
Coumarin 7-HC Production ([3]; 10 μM): 33.1 ± 0.7 pmol/mg protein/min
Coumarin 7-HC Production ([3]; 33.3 μM): 32.3 ± 0.7 pmol/mg protein/min
IC50 for CYP2C9 in Example 18 relative to that reported in Example 7 [4]: approximately three times
Tolbutamide 4-OH TB Production ([4]; 0.33 μM): 41.0 ± 0.9 pmol/mg protein/min
Tolbutamide 4-OH TB Production ([4]; 1 μM): 38.6 ± 0.5 pmol/mg protein/min
Tolbutamide 4-OH TB Production ([4]; 3.3 μM): 34.2 ± 0.2 pmol/mg protein/min
Tolbutamide 4-OH TB Production ([4]; 10 μM): 22.7 ± 0.6 pmol/mg protein/min
Tolbutamide 4-OH TB Production ([4]; 33.3 μM): 12.7 ± 0.2 pmol/mg protein/min
Dextromethorphan DEX Production ([5]; 0.33 μM): 107 ± 4 pmol/mg protein/min
Dextromethorphan DEX Production ([5]; 1 μM): 110 ± 2 pmol/mg protein/min
Dextromethorphan DEX Production ([5]; 3.3 µM): 104 ± 3 pmol/mg protein/min
Dextromethorphan DEX Production ([5]; 10 µM): 107 ± 1 pmol/mg protein/min
Dextromethorphan DEX Production ([5]; 33.3 µM): 106 ± 4 pmol/mg protein/min
Chlorzoxazone 6-OH CZX Production ([6]; 0.33 μM): 238 ± 4 pmol/mg protein/min
Chlorzoxazone 6-OH CZX Production ([6]; 1 μM): 244 ± 1 pmol/mg protein/min
Chlorzoxazone 6-OH CZX Production ([6]; 3.3 μM): 239 ± 4 pmol/mg protein/min
Chlorzoxazone 6-OH CZX Production ([6]; 10 μM): 244 ± 6 pmol/mg protein/min
Chlorzoxazone 6-OH CZX Production ([6]; 33.3 μM): 239 ± 4 pmol/mg protein/min
Testosterone 6β-OHT Production ([7]; 0.33 µM): 1816 ± 12 pmol/mg protein/min
Testosterone 6β-OHT Production ([7]; 1 µM): 1851 ± 14 pmol/mg protein/min
Testosterone 6β-OHT Production ([7]; 3.3 µM): 1810 ± 3 pmol/mg protein/min
Testosterone 6β-OHT Production ([7]; 10 µM): 1819 ± 4 pmol/mg protein/min
Testosterone 6β-OHT Production ([7]; 33.3 µM): 1816 ± 6 pmol/mg protein/min
inhibition at 30 min, 0.33 μM [8]: 1%
inhibition at 30 min, 1 μM [8]: 0%
inhibition at 30 min, 3.3 μM [8]: -1%
inhibition at 30 min, 10 μM [8]: -1%
inhibition at 30 min, 33.3 μM [8]: -1%
inhibition at 20 min, 0.33 μM [9]: -4%
inhibition at 20 min, 1 μM [9]: -2%
inhibition at 20 min, 3.3 μM [9]: 0%
inhibition at 20 min, 10 μM [9]: -3%
inhibition at 20 min, 33.3 μM [9]: -1%
inhibition at 40 min, 0.33 μM [10]: 5%
inhibition at 40 min, 1 μM [10]: 10%
inhibition at 40 min, 3.3 μM [10]: 21%
inhibition at 40 min, 10 μM [10]: 47%
inhibition at 40 min, 33.3 μM [10]: 71%
inhibition at 15 min, 0.33 μM [11]: 3%
inhibition at 15 min, 1 μM [11]: 1%
inhibition at 15 min, 3.3 µM [11]: 6%
inhibition at 15 min, 10 µM [11]: 4%
inhibition at 15 min, 33.3 µM [11]: 5%
inhibition at 20 min, 0.33 μM [12]: 3%
inhibition at 20 min, 1 μM [12]: 1%
inhibition at 20 min, 3.3 μM [12]: 3%
inhibition at 20 min, 10 μM [12]: 1%
inhibition at 20 min, 33.3 μM [12]: 3%
inhibition at 10 min, 0.33 µM [13]: 1.5%
inhibition at 10 min, 1 µM [13]: 0%
inhibition at 10 min, 3.3 µM [13]: 1.8%
inhibition at 10 min, 10 µM [13]: 1.3%
inhibition at 10 min, 33.3 µM [13]: 1.5%
inhibition of CYP2E1, in words [14]: not observed
